# Key:
# endometrium = experiment: Post-study mock cycle and donor egg IVF of the two ring non-responders on other progesterone; format: in vivo, human; details: for outcome of post-study donor egg IVF: single subject; for biopsy result in post-study mock cycle: single subject without transformation on the ring
# Source text: There was a fibroid found in surgery post-study, which could have affected blood supply to the endometrium. […] The subject is considering one more IVF attempt with a donor egg.
# IVF cycles = details: luteal phase support in IVF cycles; Soliman et al. 1994; cited from earlier work
Structure (SMILES),outcome of post-study donor egg IVF (endometrium),biopsy result in post-study mock cycle (endometrium),pregnancy rates versus placebo (IVF cycles)
"CC(=O)[C@H]1CC[C@H]2[C@@H]3CCC4=CC(=O)CC[C@]4(C)[C@H]3CC[C@]12C [IM progesterone, pregn-4-ene-3,20-dione]",ongoing pregnancy with delivery,adequate transformation,–
"CC(=O)[C@H]1CC[C@H]2[C@@H]3CCC4=CC(=O)CC[C@]4(C)[C@H]3CC[C@]12C [micronized progesterone, pregn-4-ene-3,20-dione]",negative βhCG,adequate transformation,–
"CC(=O)[C@H]1CC[C@H]2[C@@H]3CCC4=CC(=O)CC[C@]4(C)[C@H]3CC[C@]12C [progesterone, pregn-4-ene-3,20-dione]",–,–,significantly higher pregnancy rates than placebo
